Assay results published in patent US20230203081A1, “LINCOSAMIDE ANTIBIOTICS AND USES THEREOF” (President and Fellows of Harvard College, priority 2020, published 2023).
In brackets after ≈: the same amount, converted by molar mass.

How the values were obtained:
Format in all cases: cell-based
E. coli ΔTolC = experiment: microbe, parasite or virus in culture; details: Escherichia coli, E. coli HAV#038; ΔTolC
Outline: (§1)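 Isolates other than streptococci and anaerobes, which had their own procedures, were grown overnight at 35° C on tryptic soy agar with 5% sheep blood. Suspensions were then diluted to a final inoculum of 5×10^5 CFU/mL in broth microdilution wells.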

S. aureus BAA 977 iErmA = experiment: microbe, parasite or virus in culture; details: Staphylococcus aureus, BAA-977 / MRSA
Outline: as §1

S. aureus MP-549 msrA = experiment: microbe, parasite or virus in culture; details: Staphylococcus aureus, MP549MSRA; S. aureus HAV#032, MP-549; MSR(A); read-out: MIC
Outline: as §1

[1] = tested on: broad panel of different clinical isolates; experiment: microbe, parasite or virus in culture
Outline: as §1

E. coli LptD = experiment: MIC (broth microdilution or agar dilution, CLSI); details: Escherichia coli, E. coli HAV#040; LptD; read-out: MIC
Outline: as §1

E. faecalis ATCC 29212 = experiment: MIC (broth microdilution or agar dilution, CLSI); details: Enterococcus faecalis, ATCC29212, E. faecalis HAV#005, ATCC 29212; read-out: MIC
Outline: as §1

S. aureus ATCC 29213 = experiment: MIC (broth microdilution or agar dilution, CLSI); details: Staphylococcus aureus, ATCC29213, S. aureus HAV#001, ATCC 29213, MP-549; read-out: MIC
Outline: as §1

S. aureus ATCC 700699 = experiment: MIC (broth microdilution or agar dilution, CLSI); details: Staphylococcus aureus; S. aureus HAV#202, ATCC 700699 (VISA); read-out: MIC
Outline: as §1

[2] = tested on: S. aureus ATCC BAA-1707 (MRSA); experiment: MIC (broth microdilution or agar dilution, CLSI); details: Staphylococcus aureus; S. aureus HAV#016, ATCC BAA-1707; MRSA; read-out: MIC
Outline: as §1

S. aureus hVISA = experiment: MIC (broth microdilution or agar dilution, CLSI); details: Staphylococcus aureus; S. aureus HAV#204, hVISA; read-out: MIC
Outline: as §1

S. pneumoniae ATCC 49619 = experiment: MIC (broth microdilution or agar dilution, CLSI); details: Streptococcus pneumoniae, ATCC49619, S. pneumoniae HAV#003, ATCC 49619; read-out: MIC
Outline: as §1

S. pneumoniae ATCC 6303 = experiment: MIC (broth microdilution or agar dilution, CLSI); details: Streptococcus pneumoniae, ATCC6303; S. pneumoniae HAV#351, ATCC 6303; read-out: MIC
Outline: as §1

[3] = tested on: S. pneumoniae MMX 3028 cErmB; experiment: MIC (broth microdilution or agar dilution, CLSI); details: Streptococcus pneumoniae, MMX3028CERMB; S. pneumoniae HAV#033; MMX 3028, cErmB; read-out: MIC
Outline: as §1

[4] = tested on: S. pneumoniae MMX 3031 cMefA; experiment: MIC (broth microdilution or agar dilution, CLSI); details: Streptococcus pneumoniae, MMX3031CMEFA, S. pneumoniae HAV#034; MMX 3031, cMefA; read-out: MIC
Outline: as §1

S. pyogenes ATCC 19615 = experiment: MIC (broth microdilution or agar dilution, CLSI); details: Streptococcus pyogenes, ATCC19615, S. pyogenes HAV#004, ATCC 19615; read-out: MIC
Outline: as §1

[5] = tested on: S. pyogenes MMX 946; cErmB; experiment: MIC (broth microdilution or agar dilution, CLSI); details: Streptococcus pyogenes; S. pyogenes HAV#035, MMX 946; cErmB, mac-resistant; read-out: MIC
Outline: as §1

## CC(=O)NC[C@H]1CN(c2ccc(N3CCOCC3)c(F)c2)C(=O)O1 [Linezolid]
E. coli ΔTolC
  MIC: 8 µg/mL (≈ 23.7 µM)
S. aureus BAA 977 iErmA
  MIC: 2 µg/mL (≈ 5.93 µM)
S. aureus BAA 977 iErmA; 24 h
  MIC: 4 µg/mL (≈ 11.9 µM)
S. aureus MP-549 msrA
  MIC: 4 µg/mL (≈ 11.9 µM)
[1]; Acinetobacter baumannii, A. baumannii HAV#651, Clinical
  MIC: 16 µg/mL (≈ 47.4 µM)
[1]; Acinetobacter baumannii, A. baumannii HAV#652 Clinical
  MIC: 32 µg/mL (≈ 94.9 µM)
[1]; Acinetobacter baumannii, A. baumannii HAV#653, Clinical
  MIC: 32 µg/mL (≈ 94.9 µM)
[1]; Acinetobacter baumannii, A. baumannii HAV#654, Clinical
  MIC: 32 µg/mL (≈ 94.9 µM)
[1]; Acinetobacter baumannii, A. baumannii HAV#655, Clinical
  MIC: 128 µg/mL (≈ 379 µM)
[1]; Acinetobacter baumannii, A. baumannii HAV#656, Clinical
  MIC: 64 µg/mL (≈ 190 µM)
[1]; Acinetobacter baumannii, A. baumannii HAV#657, Clinical
  MIC: 64 µg/mL (≈ 190 µM)
[1]; Acinetobacter baumannii, A. baumannii HAV#658, Clinical
  MIC: 64 µg/mL (≈ 190 µM)
[1]; Acinetobacter baumannii, A. baumannii HAV#659, Clinical
  MIC: 64 µg/mL (≈ 190 µM)
[1]; Acinetobacter baumannii, A. baumannii HAV#660, Clinical
  MIC: 64 µg/mL (≈ 190 µM)
[1]; Acinetobacter baumannii, A. baumannii HAV#661, Clinical
  MIC: 32 µg/mL (≈ 94.9 µM)
[1]; Acinetobacter baumannii, A. baumannii HAV#662, Clinical
  MIC: 64 µg/mL (≈ 190 µM)
[1]; Acinetobacter baumannii, A. baumannii HAV#663, Clinical
  MIC: 32 µg/mL (≈ 94.9 µM)
[1]; Acinetobacter baumannii, A. baumannii HAV#664, Carbapenem R
  MIC: 64 µg/mL (≈ 190 µM)
[1]; Enterococcus faecalis, E. faecalis HAV#602, Clincal
  MIC: 4 µg/mL (≈ 11.9 µM)
[1]; Enterococcus faecalis, E. faecalis HAV#607, Clinical
  MIC: 16 µg/mL (≈ 47.4 µM)
[1]; Enterococcus faecalis, E. faecalis HAV#609, Clinical
  MIC: 4 µg/mL (≈ 11.9 µM)
[1]; Enterococcus faecalis, S. faecalis 5060, Line R & Vanco R
  MIC: 8 µg/mL (≈ 23.7 µM)
[1]; Enterococcus faecalis, S. faecalis 5074, Line R
  MIC: 8 µg/mL (≈ 23.7 µM)
[1]; Enterococcus faecalis, VRE, E. faecalis HAV#251, Clinical VRE
  MIC: 2 µg/mL (≈ 5.93 µM)
[1]; Enterococcus faecalis, VRE, E. faecalis HAV#606, Clinical
  MIC: 2 µg/mL (≈ 5.93 µM)
[1]; Enterococcus faecium, E. faecium HAV#317, Clinical
  MIC: 2 µg/mL (≈ 5.93 µM)
[1]; Enterococcus faecium, E. faecium HAV#324, Clinical
  MIC: 4 µg/mL (≈ 11.9 µM)
[1]; Enterococcus faecium, E. faecium HAV#327, Clinical
  MIC: 4 µg/mL (≈ 11.9 µM)
[1]; Enterococcus faecium, E. faecium HAV#329, Clinical
  MIC: 4 µg/mL (≈ 11.9 µM)
[1]; Enterococcus faecium, VRE, E. faecium HAV#318, VanA
  MIC: 4 µg/mL (≈ 11.9 µM)
[1]; Enterococcus faecium, VRE, E. faecium HAV#319, Line R & Vanco R
  MIC: 64 µg/mL (≈ 190 µM)
[1]; Enterococcus faecium, VRE, E. faecium HAV#320, Clinical
  MIC: 2 µg/mL (≈ 5.93 µM)
[1]; Escherichia coli, E. coli HAV#503, Clinical
  MIC: 128 µg/mL (≈ 379 µM)
[1]; Escherichia coli, E. coli HAV#511, Clinical
  MIC: 32 µg/mL (≈ 94.9 µM)
[1]; Escherichia coli, E. coli HAV#512, Clinical
  MIC: 32 µg/mL (≈ 94.9 µM)
[1]; Escherichia coli, E. coli HAV#513, Clinical
  MIC: 32 µg/mL (≈ 94.9 µM)
[1]; Escherichia coli, E. coli HAV#514, Clinical
  MIC: 32 µg/mL (≈ 94.9 µM)
[1]; Escherichia coli, E. coli HAV#516, ESBL-producing
  MIC: 64 µg/mL (≈ 190 µM)
[1]; Haemophilus influenzae, ATCC9007, H. influenzae HAV#376, ATCC-9007
  MIC: 4 µg/mL (≈ 11.9 µM)
[1]; Klebsiella pneumoniae, K. pneumoniae HAV#404, Clinical
  MIC: 32 µg/mL (≈ 94.9 µM)
[1]; Klebsiella pneumoniae, K. pneumoniae HAV#405, Clinical
  MIC: 32 µg/mL (≈ 94.9 µM)
[1]; Klebsiella pneumoniae, K. pneumoniae HAV#406, Clinical
  MIC: 32 µg/mL (≈ 94.9 µM)
[1]; Klebsiella pneumoniae, K. pneumoniae HAV#407, Clinical
  MIC: 32 µg/mL (≈ 94.9 µM)
[1]; Klebsiella pneumoniae, K. pneumoniae HAV#408, Clinical
  MIC: 32 µg/mL (≈ 94.9 µM)
[1]; Klebsiella pneumoniae, K. pneumoniae HAV#409, ESBL-producing
  MIC: 64 µg/mL (≈ 190 µM)
[1]; Staphylococcus aureus, MRSA, S. aureus HAV#0107, MRSA Col(Colindale, England)
  MIC: 2 µg/mL (≈ 5.93 µM)
[1]; Staphylococcus aureus, MRSA, S. aureus HAV#218, Line R
  MIC: 8 µg/mL (≈ 23.7 µM)
[1]; Staphylococcus aureus, MRSA, S. aureus HAV#220, Line R
  MIC: 32 µg/mL (≈ 94.9 µM)
[1]; Staphylococcus aureus, MSSA, S. aureus HAV#219, Line R
  MIC: 32 µg/mL (≈ 94.9 µM)
[1]; Staphylococcus aureus, S. aureus HAV#051, mecA, norA, spcl, ermA, aad1, aac6′-aph2″
  MIC: 4 µg/mL (≈ 11.9 µM)
[1]; Staphylococcus aureus, S. aureus HAV#052, mecA, norA, fosB, blaZ
  MIC: 4 µg/mL (≈ 11.9 µM)
[1]; Staphylococcus aureus, S. aureus HAV#053 mecA, norA, fosB
  MIC: 4 µg/mL (≈ 11.9 µM)
[1]; Staphylococcus aureus, S. aureus HAV#054, mecA, norA, spcl, aad1, fosB, ermA, aac6′-aph2″, blaZ
  MIC: 1 µg/mL (≈ 2.96 µM)
[1]; Staphylococcus aureus, S. aureus HAV#211, Clinical
  MIC: 4 µg/mL (≈ 11.9 µM)
[1]; Staphylococcus aureus, S. aureus HAV#212, Clinical
  MIC: 4 µg/mL (≈ 11.9 µM)
[1]; Staphylococcus aureus, S. aureus HAV#214, Clinical
  MIC: 4 µg/mL (≈ 11.9 µM)
[1]; Staphylococcus aureus, S. aureus HAV#216, Clinical, cfr
  MIC: 16 µg/mL (≈ 47.4 µM)
[1]; Staphylococcus aureus, S. aureus HAV#217, cfr
  MIC: 64 µg/mL (≈ 190 µM)
[1]; Staphylococcus aureus, VISA, S. aureus HAV#203, Clinical (VISA)
  MIC: 2 µg/mL (≈ 5.93 µM)
[1]; Staphylococcus epidermidis, S. epidermidis HAV# 275 Clinical, cfr
  MIC: > 64 µg/mL
[1]; Staphylococcus epidermidis, S. epidermidis HAV# 276, cfr
  MIC: > 64 µg/mL
[1]; Staphylococcus epidermidis, S. epidermidis HAV#277, Line R
  MIC: > 128 µg/mL
[1]; Staphylococcus epidermidis, S. epidermidis HAV#278 Line R
  MIC: 64 µg/mL (≈ 190 µM)
[1]; Staphylococcus epidermidis, S. epidermidis HAV#279, Line R
  MIC: 4 µg/mL (≈ 11.9 µM)
[1]; Staphylococcus haemolyticus, S. haemolyticus 5052, Line R & Methicillin R
  MIC: 64 µg/mL (≈ 190 µM)
[1]; Streptococcus pneumoniae, ATCC700673, S. pneumoniae HAV#352, ATCC 700673, MDR
  MIC: 4 µg/mL (≈ 11.9 µM)
[1]; Streptococcus pneumoniae, ATCCBAA255, S. pneumoniae HAV#354, ATCC-BAA-255
  MIC: 4 µg/mL (≈ 11.9 µM)
[1]; Streptococcus pneumoniae, ATCCBAA334, S. pneumoniae HAV#353, ATCC-BAA-334
  MIC: 4 µg/mL (≈ 11.9 µM)
[1]; Streptococcus pneumoniae, S. pneumoniae HAV#356, Clinical
  MIC: 4 µg/mL (≈ 11.9 µM)
[1]; Streptococcus pneumoniae, S. pneumoniae HAV#358, Clinical
  MIC: 4 µg/mL (≈ 11.9 µM)
E. coli LptD
  MIC: 32 µg/mL (≈ 94.9 µM)
E. faecalis ATCC 29212
  MIC: 2 µg/mL (≈ 5.93 µM)
S. aureus ATCC 29213
  MIC: 2 µg/mL (≈ 5.93 µM)
S. aureus ATCC 700699
  MIC: 2 µg/mL (≈ 5.93 µM)
[2]
  MIC: 2 µg/mL (≈ 5.93 µM)
S. aureus hVISA
  MIC: 2 µg/mL (≈ 5.93 µM)
S. pneumoniae ATCC 49619
  MIC: 1 µg/mL (≈ 2.96 µM)
S. pneumoniae ATCC 6303
  MIC: 1 µg/mL (≈ 2.96 µM)
[3]
  MIC: 0.5 µg/mL (≈ 1.48 µM)
[4]
  MIC: 1 µg/mL (≈ 2.96 µM)
S. pyogenes ATCC 19615
  MIC: 2 µg/mL (≈ 5.93 µM)
[5]
  MIC: 1 µg/mL (≈ 2.96 µM)
